In patent US10765134B2, “Foodstuff containing citrus products having added 4-hydroxyflavanones” (SYMRISE AG, priority 2015, dated 2020):
Counter-ions that a name gives are not always drawn.

Test: Evaluation of taste (bitter, sour, sweet) by panellists, orange juice with and without added 4-hydroxyflavanone
Format: in vivo
Source text: Masking the perception of sour and the bitterness in orange juice, which was obtained from premature fruits and/or HLB infected fruits with at least 5 ppm limonin
A commercial orange juice was used for the experiments, which according to an analysis contains 7.8 ppm limonin and was regularly evaluated as too bitter from the panellists. The panellists (n=6) thereby evaluate the 3 attributes “sweet”, “bitter” and “sour” on an unstructured scale of 0 (no taste) to 10 (strong taste). In one sample, the panellists received the orange juice alone, in a further sample, they received the orange juice which was supplemented with an amount of 4-hydroxyflavanone as listed in one of the tables. Thereby, the order was arbitrary and not known to the panellists before.

[1] = 30 ppm in the examined orange juice
[2] = 30 ppm racemic homoeriodictyol-sodium-salt vs orange juice (7.8 ppm limonin) alone, Example 4
[3] = 50 ppm racemic homoeriodictyol-sodium-salt vs orange juice (7.8 ppm limonin) alone, Example 3
[4] = orange juice containing 7.8 ppm limonin + 30 ppm racemic homoeriodictyol-sodium-salt, scale 0-10, n=6 panellists, Example 4
[5] = orange juice containing 7.8 ppm limonin + 50 ppm racemic homoeriodictyol-sodium-salt, scale 0-10, n=6 panellists, Example 3
[6] = 20 ppm in the examined orange juice
[7] = 20 ppm racemic naringenin vs orange juice (7.8 ppm limonin) alone, Example 1
[8] = orange juice containing 7.8 ppm limonin + 20 ppm racemic naringenin, scale 0-10, n=6 panellists, Example 1
[9] = 10 ppm in the examined orange juice
[10] = 10 ppm racemic eriodictyol vs orange juice (7.8 ppm limonin) alone, Example 2
[11] = B (10 ppm racemic eriodictyol) vs A (orange juice 7.8 ppm limonin alone), Example 5
[12] = orange juice containing 7.8 ppm limonin + 10 ppm racemic eriodictyol, scale 0-10, n=6 panellists, Example 2
[13] = sample B: orange juice containing 7.8 ppm limonin + 10 ppm racemic eriodictyol, scale 0-10, Example 5

## COc1cc([C@@H]2CC(=O)c3c(O)cc(O)cc3O2)ccc1O (racemic) [racemic homoeriodictyol-sodium-salt, homoeriodictyol-sodium-salt]
[1]
  effect on bitter taste (in words): clear reduction
  effect on sour impression (in words): decreases
  effect on sweet taste (in words): does not influence
[2]
  Relative change Bitter: −27%
  Relative change Sour: −12%
  Relative change Sweet: +3%
50 ppm in the examined orange juice
  effect on sour perception (in words): influenced more strongly
[3]
  Relative change Bitter: −13%
  Relative change Sour: −23%
  Relative change Sweet: +24%
[4]
  Evaluation (0-10) Bitter: 3.2
  Evaluation (0-10) Sour: 4.1
  Evaluation (0-10) Sweet: 4.8
[5]
  Evaluation (0-10) Bitter: 4.1
  Evaluation (0-10) Sour: 3.3
  Evaluation (0-10) Sweet: 4.0

## O=C1C[C@@H](c2ccc(O)cc2)Oc2cc(O)cc(O)c21 (racemic) [racemic naringenin, naringenin]
[6]
  effect on bitter taste (in words): clear reduction
  effect on sour impression (in words): decrease
  effect on sweet impression (in words): increase
[7]
  Relative change Bitter: −31%
  Relative change Sour: −25%
  Relative change Sweet: +30%
Orange juice containing 7.8 ppm limonin + 20 ppm racemic naringenin, scale 0 (no taste) to 10 (strong taste), n=6 panellists, Example 1
  Evaluation (0-10) Bitter: 3.4
[8]
  Evaluation (0-10) Sour: 3.3
  Evaluation (0-10) Sweet: 5.2

## O=C1C[C@@H](c2ccc(O)c(O)c2)Oc2cc(O)cc(O)c21 (racemic) [racemic eriodictyol, eriodictyol]
[9]
  effect on bitter taste (in words): strong reduction
  effect on sour perception (in words): decreased
  effect on sweet impression (in words): increased
[10]
  Relative change Bitter: −32%
  Relative change Sour: −20%
  Relative change Sweet: +28%
[11]
  Relative change A/B Bitter: −21%
  Relative change A/B Sour: −12%
  Relative change A/B Sweet: +40%
[12]
  Evaluation (0-10) Bitter: 3.2
  Evaluation (0-10) Sour: 4.4
  Evaluation (0-10) Sweet: 5.1
[13]
  Evaluation (0-10) Bitter: 3.9
  Evaluation (0-10) Sour: 4.4
  Evaluation (0-10) Sweet: 4.2
